Laboratory results taken from patent US6355823B1 (Board of Regents, The University of Texas System, priority 1999, dated 2002).
Where “and” joins values, the source holds several entries; their conditions need not be identical. Equal values may be shown once. Read-outs that look alike come from different tables or passages of the source.

How the values were obtained:
[1] = Radioactivity in urine, stool, kidney and liver after [3H]2′-PP; format: in vivo, rat
Experimental: (§1) Ten rats with normal renal function were treated with varied amounts of [^3H]2′-PP by gavage for seven days. The 2′-PP was given once/day in a solution containing 270 mM sucrose and 10 mM Tris-Cl pH 7.4. Blood was withdrawn 1, 4, and 7 days from the start of the treatment and analyzed for serum phosphate and serum calcium, with the results shown in Table 1. A second, one-week trial was performed adding 2′-PP to the drinking water. Blood was withdrawn at 1, 4 and 7 days and assayed for calcium and phosphate. Dietary phosphorus was increased from 0.9% to 5% for one week, and the experiment repeated at the elevated dietary phosphorus with 2′-PP added to the drinking water for an additional two weeks. The amount of radioactivity in the urine and stool as examined. After two weeks, the animals were sacrificed, and the kidney and liver were examined for radioactivity.
After 4 weeks on 2′-PP, the rats were sacrificed and their kidneys and liver examined for radioactivity. […] A crude estimate of 2′-PP turnover time was calculated from the amount of radioactivity in the stool after administration of [^3H]2′-PP was discontinued; and the 2′-PP half-life was estimated as 12±1 hr.

[2] = system: rats with normal renal function; assay: Effect of 2′-PP on rat survival, serum phosphate and serum calcium (Table 1 study); format: in vivo; settings: for Serum calcium / Serum phosphate: seven days after beginning treatment
Experimental: as §1
Serum calcium levels (2.1 mM±0.18 mM) remained unchanged (7% fluctuation compared to 3% error in duplicate determinations) on both the normal and high phosphate diets irrespective of 2′-PP concentration. […] Serum phosphate was 2.5±0.2 mM prior to administration of 2′-PP (n=12). […] Rats on the high phosphate diet required higher 2′-PP concentrations to achieve the same results, however, similar decreases in serum phosphate were seen. […] At 10 μM 2′-PP, rats on the high phosphorus diet had serum phosphate levels below that seen in untreated rats on the normal phosphate diet.
The values given are measured seven days after beginning treatment with the indicated 2′-PP concentration. Results are from duplicate rats and assayed in triplicate.

[3] = biological target: T1, intestinal BBM Na/phosphate co-transporter (Oryctolagus cuniculus, UniProt G1SIP4)
T1 sequence (G1SIP4 25-715): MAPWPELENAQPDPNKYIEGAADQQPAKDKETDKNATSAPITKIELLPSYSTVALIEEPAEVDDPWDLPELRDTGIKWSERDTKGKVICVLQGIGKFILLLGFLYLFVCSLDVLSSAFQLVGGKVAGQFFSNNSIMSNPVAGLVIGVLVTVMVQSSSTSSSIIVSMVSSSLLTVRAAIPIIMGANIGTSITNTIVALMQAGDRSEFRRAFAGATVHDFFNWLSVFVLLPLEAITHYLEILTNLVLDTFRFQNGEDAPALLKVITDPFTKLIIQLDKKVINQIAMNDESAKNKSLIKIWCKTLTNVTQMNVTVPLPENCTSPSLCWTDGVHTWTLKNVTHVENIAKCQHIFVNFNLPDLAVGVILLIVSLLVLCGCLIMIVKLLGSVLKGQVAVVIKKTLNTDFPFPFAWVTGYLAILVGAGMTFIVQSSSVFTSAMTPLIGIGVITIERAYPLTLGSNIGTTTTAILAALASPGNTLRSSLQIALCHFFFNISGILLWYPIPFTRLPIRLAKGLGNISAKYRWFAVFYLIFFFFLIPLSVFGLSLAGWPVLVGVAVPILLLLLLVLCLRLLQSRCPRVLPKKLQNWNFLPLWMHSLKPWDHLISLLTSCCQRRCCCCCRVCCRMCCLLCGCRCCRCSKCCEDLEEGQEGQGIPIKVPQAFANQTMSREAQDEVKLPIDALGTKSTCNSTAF

[4] = system: rats on a 0.9% phosphorus diet; assay: Serum phosphate after withdrawal of 2′-PP (in vivo half-life); design: species or system rat
Experimental: Rats on a 0.9% phosphorus diet were given 10 μM [^3H]2′-PP in their water for 2 weeks. Serum phosphate and calcium were determined by spectrophotometric assays. Following the experimental period, 2′-PP was removed from the water, and the stool was examined for radioactivity at days 1, 3, 5 and 8, and serum phosphate was examined.
The apparent half-time to return to normal serum phosphate levels was approximately 3 days. […] During this maturation period, crypt cells express the intestinal brush border membrane Na/phosphate co-transporter.

[5] = biological target: T2, intestinal Na/phosphate co-transporter (Oryctolagus cuniculus, UniProt G1SIP4); assay: Na-dependent [32P]phosphate uptake by rabbit intestinal brush border membrane (BBM) vesicles; settings: for type of inhibition of Na-dependent phosphate uptake: Dixon plot, with respect to phosphate
T2 sequence (G1SIP4 1-715): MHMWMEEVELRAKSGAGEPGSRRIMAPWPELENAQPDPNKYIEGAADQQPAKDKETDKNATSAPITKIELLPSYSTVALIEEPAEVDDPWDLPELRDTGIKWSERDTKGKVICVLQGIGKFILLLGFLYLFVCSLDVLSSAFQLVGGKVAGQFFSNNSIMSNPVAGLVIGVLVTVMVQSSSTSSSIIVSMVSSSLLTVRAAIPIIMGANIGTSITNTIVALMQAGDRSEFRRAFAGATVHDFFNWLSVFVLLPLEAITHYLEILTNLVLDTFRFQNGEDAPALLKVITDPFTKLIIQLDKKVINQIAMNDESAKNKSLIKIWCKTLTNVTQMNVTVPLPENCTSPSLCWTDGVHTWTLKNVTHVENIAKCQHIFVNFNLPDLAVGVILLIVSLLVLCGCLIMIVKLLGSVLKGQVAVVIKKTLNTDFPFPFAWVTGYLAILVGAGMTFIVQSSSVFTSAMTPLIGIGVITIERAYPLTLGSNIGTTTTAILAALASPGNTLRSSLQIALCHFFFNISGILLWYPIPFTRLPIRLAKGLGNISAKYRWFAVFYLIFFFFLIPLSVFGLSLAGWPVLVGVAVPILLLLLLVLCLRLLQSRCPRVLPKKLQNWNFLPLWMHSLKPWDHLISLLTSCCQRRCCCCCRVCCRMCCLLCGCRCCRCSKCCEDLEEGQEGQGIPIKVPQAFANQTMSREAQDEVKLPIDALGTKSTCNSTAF

[6] = biological target: intestinal brush border membrane alkaline phosphatase (Oryctolagus cuniculus, UniProt G1SXE4); assay: biochemical; format: biochemical
intestinal brush border membrane alkaline phosphatase, sequence (G1SXE4 25-504): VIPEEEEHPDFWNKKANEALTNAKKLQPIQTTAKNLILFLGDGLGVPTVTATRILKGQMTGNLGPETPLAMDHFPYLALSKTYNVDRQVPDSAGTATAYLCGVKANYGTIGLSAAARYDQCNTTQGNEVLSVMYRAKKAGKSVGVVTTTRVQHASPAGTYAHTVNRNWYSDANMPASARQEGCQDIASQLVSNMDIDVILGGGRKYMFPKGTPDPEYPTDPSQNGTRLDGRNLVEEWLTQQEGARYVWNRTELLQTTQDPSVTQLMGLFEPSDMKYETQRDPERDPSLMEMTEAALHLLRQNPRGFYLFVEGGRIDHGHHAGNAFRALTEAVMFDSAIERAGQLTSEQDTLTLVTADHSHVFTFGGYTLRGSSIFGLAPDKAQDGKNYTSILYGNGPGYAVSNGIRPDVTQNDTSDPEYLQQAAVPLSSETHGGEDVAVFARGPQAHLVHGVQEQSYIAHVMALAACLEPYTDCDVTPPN

[7] = system: rats with normal renal function; assay: Second 2-week study of 2′-PP in drinking water (FIG. 10, 11); format: in vivo, rat
Experimental: Serum phosphate again decreased in a 2′-PP concentration-dependent manner immediately after its addition to the rats' drinking water. After 2 weeks on 2′-PP, serum phosphate was reduced to between 1.8 mM on 1 μM 2′-PP and 1.2 mM at 25 μM 2′-PP. […] This decrease in serum calcium may be related to a slight volume expansion. The rats receiving 5 μM or higher concentrations of 2′-PP drank 2-4 times more water than normal for the first 4 days of the study. After the first 4 days, water consumption returned to normal.

[8] = system: intestinal Na/phosphate co-transporter; assay: [3H]AZPP photolabeling of Ca-BBM protein, papain digest and immunoprecipitation; format: binding
Experimental: Ca-BBM protein (1.8 nmoles 2′-PP binding sites as determined from 9 pmoles [^3H]2′-PP bound/mg protein) was labeled with [^3H]AZPP (1 minute incubation with 10 μM [^3H]AZPP at 4° C. in 150 mM NaCl and 10 mM sodium borate pH 7, followed by a 1 minute exposure to visible light). Following centrifugation to remove excess label, BBM protein was digested with papain as previously described in Peerce, B. E. (1995) Biochim. Biophys. Acta. 1239: 11-21 and Peerce, B. E.; Cedilote, M. and Clarke, R. D. (1995) Biochim. Biophys. Acta. 1239: 1-10, and resolved into membrane-retained and soluble peptides. 95% of the radioactivity was in the membrane-retained fraction. SDS-solubilization of the membrane-retained fraction released 85% of the radioactivity.
A polyclonal antibody to the intestinal Na/phosphate co-transporter (KL9.2) developed in the laboratory was used to immunoprecipitate CHAPS-solubilized [^3H]AZPP-labeled Ca-BBM protein. The complex was electrophoresed by SDS-PAGE and stained with Coomassie blue, according to the method of Laemmli, U.K 1970 Nature (Lond.) 227: 680-685. A track was cut into 2 mm slices, and the slices counted for tritium. […] The residual 12%±2%, n=3, of the applied label appeared to be non-specifically associated with lipid (chloroform:methanol extracted).

[9] = High Phosphate Diet, [2′-PP] 1 μM
[10] = High Phosphate Diet, [2′-PP] 2 μM
[11] = High Phosphate Diet, [2′-PP] 5 μM
[12] = High Phosphate Diet, [2′-PP] 10 μM
[13] = High Phosphate Diet, [2′-PP] 25 μM
[14] = Normal Phosphate Diet, [2′-PP] 1 μM
[15] = Normal Phosphate Diet, [2′-PP] 2 μM
[16] = Normal Phosphate Diet, [2′-PP] 5 μM
[17] = Normal Phosphate Diet, [2′-PP] 10 μM
[18] = Normal Phosphate Diet, [2′-PP] 25 μM
[19] = four weeks of treatment with 2′-PP
[20] = 10 μM [3H]2′-PP in water for 2 weeks, then removed

O=C(CCc1ccc(O)cc1)c1c(O)cc(O)cc1OP(=O)(O)O
radioactivity in the urine, kidney, or the liver ([1]; after 4 weeks on [3H]2′-PP): No measurable radioactivity | permeation across the intestinal membrane ([1]; at the concentrations tested): relatively impermeant | 2′-PP half-life (turnover time) ([1]; crude estimate from radioactivity in the stool after [3H]2′-PP was discontinued): 12 ± 1 h | Serum calcium [2, 9]: 2.1 ± 0.1 mM | Serum phosphate [2, 9]: 4.4 ± 0.2 mM | Serum calcium [2, 10]: 2.1 ± 0.1 mM | Serum phosphate [2, 10]: 3.3 ± 0.2 mM | Serum calcium [2, 11]: 2.1 ± 0.1 mM | Serum phosphate [2, 11]: 2.6 ± 0.1 mM | Serum calcium [2, 12]: 2.1 ± 0.1 mM | Serum phosphate [2, 12]: 2.0 ± 0.04 mM | Serum calcium [2, 13]: 2.0 ± 0.1 mM | Serum phosphate [2, 13]: 1.8 ± 0.08 mM | Serum calcium [2, 14]: 2.1 ± 0.08 mM | Serum phosphate [2, 14]: 2.5 ± 0.1 mM | Serum calcium [2, 15]: 2.1 ± 0.1 mM | Serum phosphate [2, 15]: 2.2 mM and 2.2 ± 0.1 mM | Serum calcium [2, 16]: 2.1 ± 0.05 mM | Serum phosphate [2, 16]: 2.0 ± 0.07 mM | Serum calcium [2, 17]: 2.0 ± 0.1 mM | Serum phosphate [2, 17]: 1.8 ± 0.1 mM | Serum calcium [2, 18]: 2.1 ± 0.1 mM | Serum phosphate [2, 18]: 1.4 mM and 1.4 ± 0.1 mM | change in weight [2, 19]: nor did they suffer any measurable change in weight | rat survival [2, 19]: none of the rats died | Serum calcium levels (remained unchanged) ([2]; normal and high phosphate diets, irrespective of 2′-PP concentration): 2.1 mM | 2′-PP bound (kinetic analysis of trace B) [3]: 8.5 pmoles 2′-PP bound/mg protein | 2′-PP bound at infinite osmotic strength [3]: 8±0.6 pmoles of 2′-PP bound/mg protein | 2′-PP bound in the absence of Na [3]: 0.12±0.005 pmoles 2′-PP bound/mg protein | Hill coefficient nH of Na effect on 2′-PP binding [3]: 1.9±0.25 | [3H]2′-PP binding sites [3]: 9 pmoles [^3H]2′-PP bound/mg protein | apparent K0.5 for Na (Na concentration at 50% 2′-PP bound) [3]: 23 ± 3 mM | transport by the Na/phosphate co-transporter [3]: not transported | apparent half-time to return to normal serum phosphate levels [4, 20]: approximately 3 days | time for serum phosphate to return to normal (control) level after withdrawal [4, 20]: five | inhibition at 10 µM ([4]; Rattus norvegicus, 10 μM 2′-PP administered daily, read-out: inhibition of the Na/phosphate co-transporter in vivo): ~100% | Ki [5]: 0.59 ± 0.08 µM | type of inhibition of Na-dependent phosphate uptake [5]: competitive with respect to phosphate | change in apparent k0.5 for inhibition of Na-dependent [32P]phosphate uptake after pre-incubation with Ca-BBM ([5]; incubations of up to 10 minutes at 23° C.): no measurable change | substrate of alkaline / apical membrane phosphatase [6]: substrate of alkaline phosphatase | type of inhibition of alkaline phosphatase [6]: competitive inhibitor | inhibition at 50 µM ([6]; read-out: inhibition of alkaline phosphatase): 33% | water consumption relative to normal ([7]; 5 μM or higher concentrations of 2′-PP, first 4 days of the study): 2-4 times | Serum calcium ([7]; 2′-PP concentrations of 5 μM and higher): significant decrease | Serum phosphate ([7]; after 2 weeks at 25 μM 2′-PP in drinking water): 1.2 mM | Serum phosphate ([7]; after 2 weeks on 1 μM 2′-PP in drinking water): 1.8 mM

[N-]=[N+]=Nc1cc(CCC(=O)c2c(O)cc(OP(=O)(O)O)cc2O)ccc1O [AZPP, 1-[2,6-dihydroxy-4-(phosphonooxy)phenyl]-3-(3-azido-4-hydroxyphenyl)-1-propanone]
labeled species on urea gel electrophoresis after papain digestion of SDS soluble protein [8]: single 24 kDa polypeptide | radioactivity released by SDS-solubilization of the membrane-retained fraction [8]: 85% | radioactivity in the membrane-retained fraction after papain digestion ([8]; 10 μM [3H]AZPP, 4° C., 150 mM NaCl, visible light): 95% | labeled species on SDS-PAGE after immunoprecipitation with antibody KL9.2 ([8]; CHAPS-solubilized labeled Ca-BBM protein): single 120-kDa polypeptide | residual applied label non-specifically associated with lipid ([8]; chloroform:methanol extracted, n=3): 12%

O=C(CCc1ccc(O)cc1)c1c(O)cc(NP(=O)(O)O)cc1O [NHPP]
type of inhibition of Na-dependent phosphate uptake [5]: competitive inhibitor | Ki ([5]; read-out: K1 (Kl) for inhibition of Na-dependent phosphate uptake, from replot of Dixon plot slope, phosphate 50, 100, 250 μM, n=3): 6.9 ± 1 µM

Phosphate [reference compound]
IC50 ([3]; read-out: concentration inhibiting 50% of Na-dependent 2′-PP bound to Ca-BBM): 105 ± 15 µM
